According to patent US20050038047A1, “Azaquinazoline derivatives” (priority 2003, published 2005):

Target: T1, rat mGluR1a receptor (Rattus norvegicus, UniProt P23385)
T1 construct: expressed in transfected cells; host or cells: Chinese Hamster Ovary cells (CHO-1a), stably transfected
Test: mGluR1 assay: antagonism of glutamate-evoked calcium internalisation in CHO-1a cells (FLIPr)
Type: cell-based
Conditions: CHO cells stably transfected with rat mGluR1a; 40 μM glutamate challenge; IC50 values converted to modified Ki values; read-out: binding affinities (mGluR1 assay)
Experimental: The ability of compounds of formula (I) to antagonise glutamate-evoked increases in calcium internalisation in an mGluR1 expressing cell line may be measured using the assay described below.
Chinese Hamster Ovary cells stably-transfected with the rat mGluR1a receptor (CHO-1a) were used in the assay. CHO-1a cells were seeded onto shallow 96 well plates and assayed at a confluency of 80-90%. Cells were loaded with Fluo-3-AM dye (8.8 μM final concentration; excitation 488 nm, emission 530 nm) in the presence of probenecid (2.5 mM), for 45-90 minutes at 37° C., after which time excess dye was removed by washing. The cell plate was then loaded onto a fluorometric imaging plate reader (FLIPr, Molecular Devices). Baseline readings were measured for 30 seconds. Test compounds were added by the FLIPr and allowed to equilibrate for 5 minutes before the addition of a 40 μM glutamate challenge (this was the approximate ED90 for glutamate against the receptor expressed in these cells). Readings were taken for a further 2 minutes. Measurements were made of the area of peak obtained in response to the glutamate addition and inhibition curves were constructed. Glutamate dose-response curves were included on each experimental day to allow IC50 values to be converted to modified Ki values.

T1 sequence (P23385 19-1199): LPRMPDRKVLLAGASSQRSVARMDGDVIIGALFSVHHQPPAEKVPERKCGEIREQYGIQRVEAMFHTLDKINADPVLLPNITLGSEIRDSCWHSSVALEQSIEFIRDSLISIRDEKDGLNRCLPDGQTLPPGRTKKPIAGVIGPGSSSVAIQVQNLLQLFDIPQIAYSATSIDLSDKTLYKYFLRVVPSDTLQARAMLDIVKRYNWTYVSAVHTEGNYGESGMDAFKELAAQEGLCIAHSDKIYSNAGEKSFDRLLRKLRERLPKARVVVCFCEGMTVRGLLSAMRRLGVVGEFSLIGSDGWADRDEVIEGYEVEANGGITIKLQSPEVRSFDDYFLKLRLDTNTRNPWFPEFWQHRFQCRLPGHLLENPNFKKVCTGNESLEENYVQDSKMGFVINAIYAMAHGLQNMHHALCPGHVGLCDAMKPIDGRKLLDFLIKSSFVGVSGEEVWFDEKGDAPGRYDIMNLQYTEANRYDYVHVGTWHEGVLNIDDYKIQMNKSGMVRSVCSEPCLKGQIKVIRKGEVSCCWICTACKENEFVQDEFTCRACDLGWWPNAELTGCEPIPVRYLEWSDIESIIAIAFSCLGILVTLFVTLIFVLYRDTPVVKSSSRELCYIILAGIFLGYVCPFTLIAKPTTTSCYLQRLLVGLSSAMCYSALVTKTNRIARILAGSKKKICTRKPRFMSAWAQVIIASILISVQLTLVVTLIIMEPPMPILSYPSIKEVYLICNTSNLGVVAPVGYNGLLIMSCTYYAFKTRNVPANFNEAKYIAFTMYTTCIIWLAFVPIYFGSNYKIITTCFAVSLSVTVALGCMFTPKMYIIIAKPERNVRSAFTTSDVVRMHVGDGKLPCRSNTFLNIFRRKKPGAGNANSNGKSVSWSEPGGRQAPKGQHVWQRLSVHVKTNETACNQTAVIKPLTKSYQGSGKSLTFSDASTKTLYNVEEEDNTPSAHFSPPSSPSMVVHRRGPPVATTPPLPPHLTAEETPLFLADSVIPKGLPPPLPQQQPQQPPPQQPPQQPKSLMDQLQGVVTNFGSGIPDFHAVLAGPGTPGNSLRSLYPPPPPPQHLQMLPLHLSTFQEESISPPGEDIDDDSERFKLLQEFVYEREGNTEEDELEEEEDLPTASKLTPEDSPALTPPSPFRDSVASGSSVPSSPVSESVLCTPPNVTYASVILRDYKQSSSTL

Ki [nM]	Compound
3	OC1CCN(c2cc3c(NC4CCCCCC4)ncnc3cn2)CC1 [Example 1, 1-(4-Cycloheptylamino-pyrido[3,4-d]pyrimidin-6-yl)-piperidin-4-ol]
2	OCCCNc1cc2c(NC3CCCCCC3)ncnc2cn1 [Example 3]
